# In patent publication US12662451B2, “Chemical compounds and uses thereof” (GLAXOSMITHKLINE INTELLECTUAL PROPERTY (NO.4) LIMITED, priority 2023, dated 2026):
# Where a name gives a salt, the structure may show the parent alone.
# How the values were obtained:
# [1] = target: T1, recombinant full-length WRN protein (1-1432) (Homo sapiens, UniProt Q14191); assay: WRN unwinding activity, fluorogenic 384-well assay (Example A); format: biochemical; details: WRN unwinding activity, 4 hr; Table 2; read-out: 4 hr UNW pIC50 (converted)
# T1 construct: recombinant full-length WRN protein (1-1432)
# T1 sequence (Q14191 whole entry): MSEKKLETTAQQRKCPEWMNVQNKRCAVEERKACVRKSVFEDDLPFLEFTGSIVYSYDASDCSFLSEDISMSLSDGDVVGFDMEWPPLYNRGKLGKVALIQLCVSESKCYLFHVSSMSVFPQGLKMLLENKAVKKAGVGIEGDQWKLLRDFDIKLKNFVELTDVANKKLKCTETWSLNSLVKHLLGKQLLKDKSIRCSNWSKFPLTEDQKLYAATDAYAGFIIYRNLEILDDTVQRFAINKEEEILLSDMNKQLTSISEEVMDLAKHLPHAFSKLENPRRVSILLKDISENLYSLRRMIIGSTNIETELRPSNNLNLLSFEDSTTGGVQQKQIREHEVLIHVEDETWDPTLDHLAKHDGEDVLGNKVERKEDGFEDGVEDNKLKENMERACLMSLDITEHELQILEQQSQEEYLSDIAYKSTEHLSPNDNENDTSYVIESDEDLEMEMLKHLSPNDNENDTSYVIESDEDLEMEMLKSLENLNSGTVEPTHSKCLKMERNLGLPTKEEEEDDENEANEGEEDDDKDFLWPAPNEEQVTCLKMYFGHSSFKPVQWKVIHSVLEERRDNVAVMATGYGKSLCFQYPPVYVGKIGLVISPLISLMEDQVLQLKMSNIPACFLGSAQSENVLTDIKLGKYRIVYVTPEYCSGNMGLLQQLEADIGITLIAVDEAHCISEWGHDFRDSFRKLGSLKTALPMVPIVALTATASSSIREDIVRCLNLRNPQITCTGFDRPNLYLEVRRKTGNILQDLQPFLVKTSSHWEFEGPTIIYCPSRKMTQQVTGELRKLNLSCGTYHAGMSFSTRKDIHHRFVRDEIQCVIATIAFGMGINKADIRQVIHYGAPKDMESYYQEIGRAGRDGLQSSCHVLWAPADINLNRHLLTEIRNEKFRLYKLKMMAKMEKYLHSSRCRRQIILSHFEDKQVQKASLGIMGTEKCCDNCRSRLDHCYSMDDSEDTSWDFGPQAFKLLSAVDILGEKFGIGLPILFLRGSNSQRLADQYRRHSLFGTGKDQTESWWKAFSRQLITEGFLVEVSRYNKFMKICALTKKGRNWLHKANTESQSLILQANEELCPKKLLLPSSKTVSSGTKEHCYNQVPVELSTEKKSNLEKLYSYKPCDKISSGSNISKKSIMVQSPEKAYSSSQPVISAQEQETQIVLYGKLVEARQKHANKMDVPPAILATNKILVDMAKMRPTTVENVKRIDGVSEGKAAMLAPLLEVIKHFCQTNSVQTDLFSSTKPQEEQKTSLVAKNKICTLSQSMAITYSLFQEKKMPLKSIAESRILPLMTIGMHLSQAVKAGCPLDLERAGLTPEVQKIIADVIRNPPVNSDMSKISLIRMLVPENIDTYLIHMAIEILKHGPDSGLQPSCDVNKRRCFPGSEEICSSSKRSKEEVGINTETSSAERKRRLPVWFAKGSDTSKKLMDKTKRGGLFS
# Method in brief: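 Read-out is end-point unwinding of a fluorophore/quencher duplex (ex 525, em 598 nm) after 60 min with 200 μM ATP and 12 nM DNA (2× stocks), EDTA stop. Compound first sat 4 h with 200 pM WRN (2× stock) in pH 8.0 Tris buffer; four-parameter fit gives pIC50.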
# [2] = tested on: SW48 human colorectal cancer cells (MSI-H cancer cells); assay: SW48 cell viability, CellTiter-Glo, 120 hours (Example B); details: Homo sapiens, SW48, 120 h, read-out: SW48 pCC50, SW48 cell viability, 120 hours incubation (converted); Table 2
Compound,IC50 [1] [nM],CC50 [2] [nM]
"O=C(O)[C@@H]1[C@@H](c2ccc(-c3cccc4sccc34)cc2)CCC[C@H]1C(=O)Nc1ccc(C(F)(F)F)cc1F [Example 35, (1R,2S,6R)-2-(4-(benzo[b]thiophen-4-yl)phenyl)-6-((2-fluoro-4-(trifluoromethyl)phenyl)carbamoyl) cyclohexane-1-carboxylic acid]",2000,6310
"Cc1nc2cc(S(=O)(=O)N(C)c3ccc([C@H]4C[C@@](C)(O)C[C@@H](C(=O)Nc5ccc(C(F)(F)F)cc5F)[C@@H]4C(=O)O)cc3)ccc2n1C (racemic) [Example 356, rac-(1R,2R,4R,6S)-2-((2-fluoro-4-(trifluoromethyl)phenyl)carbamoyl)-4-hydroxy-4-methyl-6-(4-((N,1,2-trimethyl-1H-benzo[d]imidazole)-5-sulfonamido)phenyl)cyclohexane-1-carboxylic acid]",12.6,1260
"Cc1nc2cc(S(=O)(=O)N(C)c3ccc([C@H]4C[C@@H](N5CCCCC5)C[C@@H](C(=O)Nc5ccc(C(F)(F)F)cc5F)[C@@H]4C(=O)O)cc3)ccc2n1C (relative stereo) [Example 348, rel-(1R,2R,4R,6S)-2-((2-fluoro-4-(trifluoromethyl)phenyl)carbamoyl)-4-(piperidin-1-yl)-6-(4-((N,1,2-trimethyl-1H-benzo[d]imidazole)-5-sulfonamido)phenyl)cyclohexane-1-carboxylic acid]",1.58,398
"Cc1nc2cc(S(=O)(=O)N(C)c3ccc([C@H]4CCC[C@@H](C(=O)Nc5ccc(C(C)C)cc5)[C@@H]4C(=O)O)cc3)ccc2n1C (racemic) [Example 78, rac-(1R,2R,6S)-2-((4-isopropylphenyl)carbamoyl)-6-(4-((N,1,2-trimethyl-1H-benzo[d]imidazole)-5-sulfonamido)phenyl)cyclohexane-1-carboxylic acid]",2,1000
"O=C(O)[C@@H]1[C@@H](c2ccc(CCN3CCNC3=O)cc2)CCC[C@H]1C(=O)Nc1ccc(C(F)(F)F)cc1F [Example 60, (1R,2R,6S)-2-((2-fluoro-4-(trifluoromethyl)phenyl)carbamoyl)-6-(4-(2-(2-oxoimidazolidin-1-yl)ethyl)phenyl)cyclohexane-1-carboxylic acid]",2510,–
"O=C(O)[C@@H]1[C@@H](c2ccc(-c3ccccc3CN3CCOCC3)cc2)CCC[C@H]1C(=O)Nc1ccc(C(F)(F)F)cc1F [Example 4, (1R,2R,6S)-2-((2-fluoro-4-(trifluoromethyl)phenyl)carbamoyl)-6-(2′-(morpholinomethyl)-[1,1′-biphenyl]-4-yl)cyclohexane-1-carboxylic acid]",1000,–
"O=C(O)[C@@H]1[C@@H](c2ccc(C3=CCOC3)cc2)CCC[C@H]1C(=O)Nc1ccc(C(F)(F)F)cc1F [Example 57, (1R,2S,6R)-2-(4-(2,5-dihydrofuran-3-yl)phenyl)-6-((2-fluoro-4-(trifluoromethyl)phenyl)carbamoyl) cyclohexane-1-carboxylic acid]",100,–
"Cc1nc2cc(S(=O)(=O)N(C)c3ccc([C@H]4C[C@@H](O)C[C@@H](C(=O)Nc5ccc(C(F)(F)F)cc5F)[C@H]4C(=O)O)cc3)ccc2n1C (single isomer, unassigned) [Example 143]",15.8,–
"COC(=O)c1cncc(-c2ccc([C@H]3CCC[C@@H](C(=O)Nc4ccc(C(F)(F)F)cc4F)[C@@H]3C(=O)O)cc2)c1 [Example 26, (1R,2R,6S)-2-((2-fluoro-4-(trifluoromethyl)phenyl)carbamoyl)-6-(4-(5-(methoxycarbonyl)pyridin-3-yl)phenyl)cyclohexane-1-carboxylic acid]",10000,–
"Cc1nc2cc(S(=O)(=O)N(C)c3ccc([C@@H]4CCC[C@H](C(=O)Nc5ccc(C(F)(F)F)cc5F)[C@H]4C(=O)O)cc3C#N)ccc2n1C (relative stereo) [Example 163, rel-(1R,2S,6R)-2-(3-cyano-4-((N,1,2-trimethyl-1H-benzo[d]imidazole)-5-sulfonamido)phenyl)-6-((2-fluoro-4-(trifluoromethyl)phenyl)carbamoyl)cyclohexane-1-carboxyl c acid]",20,–
"Cc1nc2cc(S(=O)(=O)N(C)c3ccc([C@@H]4C[C@H](OC5CCC5)C[C@H](C(=O)Nc5ccc(C(F)(F)F)cc5F)[C@H]4C(=O)O)cc3)ccc2n1C (stereo in doubt) [Example 326, rel-(1R,2R,4R,6S)-4-cyclobutoxy-2-((2-fluoro-4-(trifluoromethyl)phenyl)carbamoyl)-6-(4-((N,1,2-trimethyl-1H-benzo[d]imidazole)-5-sulfonamido)phenyl)cyclohexane-1-carboxylic acid]",631,–
"O=C(O)[C@@H]1[C@@H](c2ccc(-c3ccncc3)cc2)CCC[C@H]1C(=O)Nc1ccc(C(F)(F)F)cc1F [Example 7, (1R,2R,6S)-2-((2-fluoro-4-(trifluoromethyl)phenyl)carbamoyl)-6-(4-(pyridin-4-yl)phenyl)cyclohexane-1-carboxylic acid]",100,–
"O=C(O)[C@@H]1[C@@H](c2ccc(CC3(CO)COC3)cc2)CCC[C@H]1C(=O)Nc1ccc(C(F)(F)F)cc1F [Example 68, (1R,2R,6S)-2-((2-fluoro-4-(trifluoromethyl)phenyl)carbamoyl)-6-(4-((3-(hydroxymethyl)oxetan-3-yl)methyl)phenyl)cyclohexane-1-carboxylic acid]",1580,–
"CC(=O)N1C[C@H](C(=O)Nc2ccc(C(F)(F)F)cc2F)[C@@H](C(=O)O)[C@H](c2ccc(N(C)S(=O)(=O)c3ccc4c(c3)nc(C)n4C)cc2)C1 (stereo in doubt) [Example 309, rel-(3R,4S,5R)-1-acetyl-3-((2-fluoro-4-(trifluoromethyl)phenyl)carbamoyl)-5-(4-((N,1,2-trimethyl-1H-benzo[d]imidazole)-5-sulfonamido)phenyl)piperidine-4-carboxylic acid]",200,–
"Cc1nc2cc(S(=O)(=O)N(C)c3ccc([C@H]4CCC[C@H](C(=O)Nc5ccc(C(C)C)cc5)[C@@H]4C(=O)O)cc3)ccc2n1C (racemic) [Example 72, rac-(1R,2S,6S)-2-((4-isopropylphenyl)carbamoyl)-6-(4-((N,1,2-trimethyl-1H-benzo[d]imidazole)-5-sulfonamido)phenyl)cyclohexane-1-carboxylic acid]",3.16,–
"O=C(O)[C@@H]1[C@@H](c2ccc(C3COC3)cc2)CCC[C@H]1C(=O)Nc1ccc(C(F)(F)F)cc1F [Example 63, (1R,2R,6S)-2-((2-fluoro-4-(trifluoromethyl)phenyl)carbamoyl)-6-(4-(oxetan-3-yl)phenyl)cyclohexane-1-carboxylic acid]",1580,–
"Cc1cc(N(C)S(=O)(=O)c2ccc3c(c2)nc(C)n3C)ccc1[C@@H]1CCC[C@H](C(=O)Nc2ccc(C(F)(F)F)cc2F)[C@H]1C(=O)O (stereo in doubt) [Example 385, rel-(1R,2R,6S)-2-((2-fluoro-4-(trifluoromethyl)phenyl)carbamoyl)-6-(2-methyl-4-((N,1,2-trimethyl-1H-benzo[d]imidazole)-5-sulfonamido)phenyl)cyclohexane-1-carboxylic acid]",1260,–
"Cc1nc2cc(S(=O)(=O)N(C)c3ccc([C@H]4CCC[C@@H](C(=O)N[C@H]5CC[C@H](C(C)(C)O)CC5)[C@@H]4C(=O)O)cc3)ccc2n1C [Example 183, (1R,2R,6S)-2-(((1r,4R)-4-(2-hydroxypropan-2-yl)cyclohexyl)carbamoyl)-6-(4-((N,1,2-trimethyl-1H-benzo[d]imidazole)-5-sulfonamido)phenyl)cyclohexane-1-carboxylic acid]",6.31,–
"O=C(O)[C@@H]1[C@@H](c2ccc(CC3CCNCC3)cc2)CCC[C@H]1C(=O)Nc1ccc(C(F)(F)F)cc1F [Example 71, (1R,2R,6S)-2-((2-fluoro-4-(trifluoromethyl)phenyl)carbamoyl)-6-(4-(piperidin-4-ylmethyl)phenyl)cyclohexane-1-carboxylic acid]",100000,–
"O=C(O)[C@@H]1[C@@H](c2ccc(-c3csnc3CO)cc2)CCC[C@H]1C(=O)Nc1ccc(C(F)(F)F)cc1F [Example 50, (1R,2R,6S)-2-((2-fluoro-4-(trifluoromethyl)phenyl)carbamoyl)-6-(4-(3-(hydroxymethyl)isothiazol-4-yl)phenyl)cyclohexane-1-carboxylic acid]",7.94,–
"Cc1cn2nc(-c3ccc([C@H]4CCC[C@@H](C(=O)Nc5ccc(C(F)(F)F)cc5F)[C@@H]4C(=O)O)cc3)ccc2n1 [Example 22, (1R,2R,6S)-2-((2-fluoro-4-(trifluoromethyl)phenyl)carbamoyl)-6-(4-(2-methylimidazo[1,2-b]pyridazin-6-yl)phenyl)cyclohexane-1-carboxylic acid]",1000,–
"Cc1nc2cc(S(=O)(=O)N(C)c3ccc([C@H]4CCC[C@@H](CN(C)C5CCOCC5)[C@@H]4C(=O)O)cc3)ccc2n1C (racemic) [Example 202, rac-(1R,2R,6S)-2-((methyl(tetrahydro-2H-pyran-4-yl)amino)methyl)-6-(4-((N,1,2-trimethyl-1H-benzo[d]imidazole)-5-sulfonamido)phenyl)cyclohexane-1-carboxylic acid]",100000,–
"Cc1nc2cc(S(=O)(=O)N(C)c3ccc([C@H]4CCC[C@@H](C(=O)NC56CC(C(F)(F)F)(C5)C6)[C@@H]4C(=O)O)cc3)ccc2n1C [Example 185, (1R,2R,6S)-2-((3-(trifluoromethyl)bicyclo[1.1.1]pentan-1-yl)carbamoyl)-6-(4-((N,1,2-trimethyl-1H-benzo[d]imidazole)-5-sulfonamido)phenyl)cyclohexane-1-carboxylic acid, formic acid salt]",63.1,–
